The IC50 is the concentration that inhibits the measured activity by half.

Our source for the IC50 values is ChEMBL document CHEMBL5512619, “Anticancer mechanism of coumarin-based derivatives” (Eur J Med Chem, 2024).

One assay concerns MCF7. Nature of the assay: Antiproliferative activity against human MCF7 cells measured after 72 hrs by SRB method. It is filed as functional, cell-based. To be noted: MCF7, 72 h. For orientation: The SRB assay estimates cell density from bound dye.
The test system of assay [1] is Caco-2. Kind of assay: Antiproliferative activity against human Caco-2 cells measured after 72 hrs in presence of paclitaxel by SRB method. The note with it: Caco-2, 72 h. The format is functional, cell-based.
The next assay deals with HepG2. Kind of assay: Antiproliferative activity against human HepG2 cells measured after 72 hrs by SRB method. The format is functional, cell-based. To be noted: HepG2, 72 h.
Assay [2] deals with HCT-116. Nature of the assay: cells. To be noted: Homo sapiens, HCT-116, 72 h.
Description: Antiproliferative activity against human HCT-116 cells measured after 72 hrs by SRB method
Assay [3] deals with HCT-116. Kind of assay: Antiproliferative activity against human HCT-116 cells measured after 72 hrs in presence of paclitaxel by SRB method. To be noted: HCT-116, 72 h. The format is functional, cell-based.
Another assay relates to HeLa. Nature of the assay: Antiproliferative activity against human HeLa cells measured after 72 hrs by SRB method. The format is functional, cell-based.
Assay [4] has as its system Caco-2. Kind of assay: Antiproliferative activity against human Caco-2 cells measured after 72 hrs by SRB method. To be noted: Caco-2, 72 h.

`COc1cc(C)c2oc(=O)c(C)c3c2c1[C@@H](C)CO3`: the IC50 was 740 nM in the assay on MCF7; 130 nM with Caco-2 [1]; 740 nM in the assay on HepG2; 740 nM with HCT-116 [2]; 5.1 nM with HCT-116 [3]; 740 nM in the assay with HeLa.
In the case of `CC(=O)O[C@H]1C(=O)[C@@]2(C)[C@H]([C@H](OC(=O)c3ccccc3)[C@]3(O)C[C@H](OC(=O)[C@H](O)[C@@H](NC(=O)c4ccccc4)c4ccccc4)C(C)=C1C3(C)C)[C@]1(OC(C)=O)CO[C@@H]1C[C@@H]2O` [PACLITAXEL], the IC50 in the assay on Caco-2 [4] was found to be 2100 nM; in the assay on HCT-116 [2], 27.9 nM.
